{
  "source": "paper PMC11345830",
  "about": "“Exploration of Hydrazide-Based HDAC8 PROTACs for the Treatment of Hematological Malignancies and Solid Tumors” (Journal of Medicinal Chemistry, 2024)",
  "key": {"HDAC8 [1]": {"target": "T1, HDAC8 (Homo sapiens, UniProt Q9BY41)", "T1 sequence (Q9BY41 1-377)": "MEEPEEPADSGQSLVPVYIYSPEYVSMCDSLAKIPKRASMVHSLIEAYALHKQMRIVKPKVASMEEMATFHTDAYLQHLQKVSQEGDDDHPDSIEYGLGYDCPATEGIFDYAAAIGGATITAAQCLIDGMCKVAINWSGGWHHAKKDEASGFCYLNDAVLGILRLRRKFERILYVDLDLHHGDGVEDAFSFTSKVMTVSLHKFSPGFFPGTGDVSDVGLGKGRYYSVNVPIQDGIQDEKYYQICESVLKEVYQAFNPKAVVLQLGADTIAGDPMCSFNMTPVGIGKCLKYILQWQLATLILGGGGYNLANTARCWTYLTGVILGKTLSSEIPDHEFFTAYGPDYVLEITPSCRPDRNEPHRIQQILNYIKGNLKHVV", "design": "endogenous in cells; host or cells: A549; method as in PMID 36516047", "conditions": "A549 cells; cited from earlier work"}, "A549 cells": {"system": "A549 cells", "assay": "Cell viability MTS assay, A549", "format": "cell-based", "conditions": "Homo sapiens, 72 h, read-out: IC50 antiproliferative, A549", "protocol": "(§1) MTS assay was used to measure the cell viability. For single treatment, Jurkat, THP-1 and HEL (8000 cells/well), HCT116 and A549 (2000 cells/well) were seeded in 96-well plates in 100 μL complete medium. After overnight incubation, 50 μL of media containing various concentrations of compounds or the vehicle were added to each well. For cotreatment, cells were seeded in 96-well plates in 50 μL complete medium. After overnight incubation, 50 μL of Z-VAD-FMK, Nec-1, Fer-1, CQ, and other indicated compounds were added to each well. One hour later, 50 μL of media containing various concentrations of compounds were added to each well. After 72 h of treatment, 20 μL of CellTiter 96 AQueous One Solution reagent (Promega, Madison, USA) was added to each well according to manufacturer’s protocol. Plates were incubated at 37 °C for 1–2 h. The absorbance was determined at a wavelength of 490 nm using a Synergy H1 plate reader (Biotek, Winooski, VT, USA)."}, "HDAC8 [2]": {"target": "T1, HDAC8", "assay": "In vitro HDAC8 deacetylase inhibition assay", "conditions": "read-out: HDAC8 IC50; recombinant enzyme, Boc-Lys(TFA)-AMC", "experimental": "(§2) After a following incubation at 37 °C for 20 min, the fluorescence was measured on a Synergy H1 Platereader (BioTek, USA) with an excitation wavelength of 370 nm and an emission wavelength of 460 nm. Nonlinear regression was used for the determination of the IC50 of each compound."}, "THP-1 cells": {"system": "THP-1 cells", "assay": "Cell viability MTS assay, THP-1", "format": "cell-based", "conditions": "Homo sapiens, 72 h, read-out: IC50 antiproliferative, THP-1", "protocol": "as §1"}, "HDAC2": {"target": "HDAC2 (Homo sapiens, UniProt Q92769)", "sequence (Q92769 whole entry)": "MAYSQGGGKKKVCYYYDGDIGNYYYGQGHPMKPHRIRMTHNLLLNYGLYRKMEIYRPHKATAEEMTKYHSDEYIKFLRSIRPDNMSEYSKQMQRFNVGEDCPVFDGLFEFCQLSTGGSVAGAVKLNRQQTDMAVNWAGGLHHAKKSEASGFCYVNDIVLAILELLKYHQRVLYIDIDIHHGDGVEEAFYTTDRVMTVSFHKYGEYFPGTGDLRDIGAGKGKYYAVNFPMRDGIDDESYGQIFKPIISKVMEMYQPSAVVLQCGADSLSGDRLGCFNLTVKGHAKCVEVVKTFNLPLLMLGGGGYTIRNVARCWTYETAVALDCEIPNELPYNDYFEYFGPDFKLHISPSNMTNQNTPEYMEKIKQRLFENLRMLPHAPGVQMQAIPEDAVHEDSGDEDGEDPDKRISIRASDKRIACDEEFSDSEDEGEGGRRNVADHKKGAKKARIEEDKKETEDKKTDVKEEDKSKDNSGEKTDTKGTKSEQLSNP", "assay": "In vitro HDAC2 deacetylase inhibition assay", "conditions": "read-out: HDAC2 IC50; recombinant enzyme, Boc-Lys(Ac)-AMC", "experimental": "as §2"}, "HCT116 cells": {"system": "HCT116 cells", "assay": "Cell viability MTS assay, HCT116", "format": "cell-based", "conditions": "Homo sapiens, HCT-116, 72 h, read-out: IC50 antiproliferative, HCT116", "protocol": "as §1"}, "HDAC3/NcoR2": {"target": "HDAC3/NcoR2 (Homo sapiens, UniProt O15379)", "sequence (O15379 whole entry)": "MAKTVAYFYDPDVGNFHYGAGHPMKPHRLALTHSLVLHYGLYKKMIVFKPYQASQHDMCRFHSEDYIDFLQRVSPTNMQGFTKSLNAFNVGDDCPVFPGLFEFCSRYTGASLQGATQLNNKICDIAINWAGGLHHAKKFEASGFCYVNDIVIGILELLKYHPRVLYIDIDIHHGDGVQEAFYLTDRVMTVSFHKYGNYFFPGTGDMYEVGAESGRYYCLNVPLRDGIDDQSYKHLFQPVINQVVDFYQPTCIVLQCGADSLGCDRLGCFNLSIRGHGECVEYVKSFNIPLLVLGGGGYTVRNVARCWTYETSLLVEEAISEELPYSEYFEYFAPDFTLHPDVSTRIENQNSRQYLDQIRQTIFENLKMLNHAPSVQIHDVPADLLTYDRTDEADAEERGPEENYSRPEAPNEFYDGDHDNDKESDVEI", "sequence (Q9Y618 395-489 partner limits assumed)": "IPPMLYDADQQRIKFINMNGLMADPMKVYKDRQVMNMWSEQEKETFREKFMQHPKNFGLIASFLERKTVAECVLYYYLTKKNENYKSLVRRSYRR", "assay": "In vitro HDAC3 deacetylase inhibition assay", "conditions": "read-out: HDAC3 IC50; recombinant enzyme, Boc-Lys(Ac)-AMC", "experimental": "as §2"}, "HDAC1": {"target": "HDAC1 (Homo sapiens, UniProt Q13547)", "sequence (Q13547 whole entry)": "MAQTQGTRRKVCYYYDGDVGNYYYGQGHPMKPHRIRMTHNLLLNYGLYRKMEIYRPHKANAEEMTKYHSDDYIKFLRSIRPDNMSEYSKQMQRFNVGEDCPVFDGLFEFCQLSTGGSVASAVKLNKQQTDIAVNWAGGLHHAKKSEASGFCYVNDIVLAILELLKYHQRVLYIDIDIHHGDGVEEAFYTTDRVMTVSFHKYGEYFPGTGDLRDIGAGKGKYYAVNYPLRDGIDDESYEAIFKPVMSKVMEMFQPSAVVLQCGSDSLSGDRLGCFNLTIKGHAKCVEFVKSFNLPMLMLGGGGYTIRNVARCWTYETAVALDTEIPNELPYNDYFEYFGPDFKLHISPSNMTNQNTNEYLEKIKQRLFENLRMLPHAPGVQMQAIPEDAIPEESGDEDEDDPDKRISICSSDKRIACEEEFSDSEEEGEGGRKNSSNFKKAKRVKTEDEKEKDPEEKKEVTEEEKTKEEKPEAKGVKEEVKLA", "assay": "In vitro HDAC1 deacetylase inhibition assay", "conditions": "read-out: HDAC1 IC50; recombinant enzyme, Boc-Lys(Ac)-AMC", "experimental": "as §2"}, "Jurkat cells": {"system": "Jurkat cells", "assay": "Cell viability MTS assay, Jurkat", "format": "cell-based", "conditions": "Homo sapiens, Jurkat; 72 h, MTS assay; read-out: IC50 antiproliferative, Jurkat", "protocol": "as §1"}, "acetyl-SMC3 (Ac-SMC3)": {"system": "acetyl-SMC3 (Ac-SMC3)", "assay": "Ac-SMC3 level in Jurkat cells, Western blot", "format": "cell-based", "conditions": "1 μM, 6 h"}, "HDAC6 [3]": {"target": "T2, HDAC6 (Homo sapiens, UniProt Q9UBN7)", "T2 sequence (Q9UBN7 1-1215)": "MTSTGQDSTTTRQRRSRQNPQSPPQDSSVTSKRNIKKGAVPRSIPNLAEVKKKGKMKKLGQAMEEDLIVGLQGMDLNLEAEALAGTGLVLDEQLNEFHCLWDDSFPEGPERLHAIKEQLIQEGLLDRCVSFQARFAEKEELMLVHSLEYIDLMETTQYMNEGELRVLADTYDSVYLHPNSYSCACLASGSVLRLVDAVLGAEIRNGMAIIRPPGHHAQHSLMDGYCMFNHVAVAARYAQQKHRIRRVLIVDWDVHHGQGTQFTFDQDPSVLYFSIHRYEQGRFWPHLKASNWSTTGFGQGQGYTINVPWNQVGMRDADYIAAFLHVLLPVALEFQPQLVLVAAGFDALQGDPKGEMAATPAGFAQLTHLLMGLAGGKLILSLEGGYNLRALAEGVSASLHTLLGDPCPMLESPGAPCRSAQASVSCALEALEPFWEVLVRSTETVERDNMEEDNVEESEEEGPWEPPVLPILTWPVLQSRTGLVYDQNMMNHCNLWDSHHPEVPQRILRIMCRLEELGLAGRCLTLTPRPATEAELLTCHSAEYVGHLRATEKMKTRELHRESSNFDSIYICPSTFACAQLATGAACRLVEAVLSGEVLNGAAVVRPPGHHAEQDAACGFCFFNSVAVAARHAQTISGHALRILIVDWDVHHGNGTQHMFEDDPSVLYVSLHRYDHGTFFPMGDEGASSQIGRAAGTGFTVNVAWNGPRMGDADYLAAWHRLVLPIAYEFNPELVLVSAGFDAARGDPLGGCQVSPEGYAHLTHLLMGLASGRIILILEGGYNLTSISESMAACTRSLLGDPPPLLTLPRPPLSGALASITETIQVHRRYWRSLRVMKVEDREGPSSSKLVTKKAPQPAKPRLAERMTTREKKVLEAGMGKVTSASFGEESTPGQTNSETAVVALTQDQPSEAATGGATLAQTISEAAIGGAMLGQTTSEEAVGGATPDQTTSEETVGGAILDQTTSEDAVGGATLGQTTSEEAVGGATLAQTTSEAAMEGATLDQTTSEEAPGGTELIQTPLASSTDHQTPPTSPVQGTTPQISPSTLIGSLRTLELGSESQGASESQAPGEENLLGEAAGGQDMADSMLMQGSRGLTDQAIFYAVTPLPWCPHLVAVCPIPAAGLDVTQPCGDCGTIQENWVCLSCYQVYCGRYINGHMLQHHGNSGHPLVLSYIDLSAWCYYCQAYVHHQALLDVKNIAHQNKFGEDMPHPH", "design": "endogenous in cells", "conditions": "MDA-MB-231 cells; cited from earlier work"}, "HDAC6 [4]": {"target": "T2, HDAC6", "design": "endogenous in cells; host or cells: Jurkat", "conditions": "Jurkat cells; cited from earlier work"}},
  "note": "Where two headings read alike, the source gives them in different places.",
  "data": [
    {"smiles": "O=C1CCC(N2C(=O)c3cccc(NCc4cn(CCOCCOc5ccc(Cn6ccc7ccc(C(=O)NO)cc76)cc5)nn4)c3C2=O)C(=O)N1", "note": "(stereo not shown) [PROTAC 5]", "values": [
      {"measurement": "DC50", "setting": "HDAC8 [1]", "result": 0.58, "unit": "µM"}
    ]},
    {"smiles": "CCCCCCNNC(=O)c1ccc(CNC(C)=O)cc1", "note": "[Compound 6, N-(4-(2-Hexylhydrazine-1-carbonyl)benzyl)acetamide]", "values": [
      {"measurement": "IC50", "setting": "A549 cells", "result": "> 33.3", "unit": "µM"},
      {"measurement": "IC50", "setting": "HDAC8 [2]", "result": "0.6 ± 0.08", "unit": "µM"},
      {"measurement": "IC50", "setting": "THP-1 cells", "result": "> 33.3", "unit": "µM"},
      {"measurement": "IC50", "setting": "HDAC2", "result": "8 ± 1", "unit": "µM"},
      {"measurement": "IC50", "setting": "HCT116 cells", "result": "> 33.3", "unit": "µM"},
      {"measurement": "IC50", "setting": "HDAC3/NcoR2", "result": "9.5 ± 0.7", "unit": "µM"},
      {"measurement": "IC50", "setting": "HDAC1", "result": "0.94 ± 0.05", "unit": "µM"},
      {"measurement": "IC50", "setting": "Jurkat cells", "result": "> 33.3", "unit": "µM"},
      {"measurement": "level of Ac-SMC3 at 1 μM (in words)", "setting": "acetyl-SMC3 (Ac-SMC3)", "result": "neither 1 μM of pan-HDAC inhibitor SAHA nor 1 μM of HDAC8 inhibitor 6 increased the level of Ac-SMC3"}
    ]},
    {"smiles": "COc1ccc(C(=O)NO)cc1OCc1ccc(C(=O)NCCCCCCCCNc2cccc3c2C(=O)N(C2CCC(=O)NC2=O)C3=O)cc1", "note": "(stereo not shown) [PROTAC 4]", "values": [
      {"measurement": "IC50", "setting": "A549 cells", "result": "15.2 ± 3.3", "unit": "µM"},
      {"measurement": "IC50", "setting": "THP-1 cells", "result": "10.8 ± 0.9", "unit": "µM"},
      {"measurement": "IC50", "setting": "HCT116 cells", "result": "8 ± 0.5", "unit": "µM"},
      {"measurement": "DC50", "setting": "HDAC6 [3]", "result": 0.038, "unit": "µM"},
      {"measurement": "IC50", "setting": "Jurkat cells", "result": "4 ± 0.8", "unit": "µM"},
      {"measurement": "DC50", "setting": "HDAC6 [4]", "result": 0.0785, "unit": "µM"}
    ]}
  ]
}
